Experimental data taken from article PMC7261162 (2020).
Values belong to the molecule of their own block, whether it stands above or below them.

How the values were obtained:
[1] = test system: CatG4-ext (DNA, G4) ACATAGCTGACTGGCTTGATTTTGGGTAGGGCGGGTTGGGAAATATCGAATTCTCAGCCTACACTGCAGTACTAGTACATATCA; assay: competition with hemin: StAv gel shift of self-biotinylation; conditions: 20 mM KCl, 40 mM HEPES pH 8.0, 22°C, 5 uM hemin
[2] = test system: rNRAS (RNA, G4) AGGGAGGGGCGGGUCUGGG; assay: hemin-dependent self-biotinylation, StAv gel shift (indirect); conditions: 20 mM KCl; 40 mM HEPES pH 8.0, 22°C; 5 uM hemin
[3] = test system: SPB1 (DNA, G4) GGCGAGGAGGGGCGTGGCCGGC; assay: as above; conditions: 20 mM KCl; 40 mM HEPES pH 8.0, 22°C; 5 uM hemin
[4] = test system: MYC (DNA, G4) TGAGGGTGGGTAGGGTGGGTAA; assay: as above; conditions: 20 mM KCl; 40 mM HEPES pH 8.0, 22°C; 5 uM hemin
[5] = test system: TBA (DNA, G4) GGTTGGTGTGGTTGG; assay: as above; conditions: 20 mM KCl; 40 mM HEPES pH 8.0, 22°C; 5 uM hemin
[6] = test system: KIT1 (DNA, G4) AGGGAGGGCGCTGGGAGGAGGG; assay: as above; conditions: 20 mM KCl; 40 mM HEPES pH 8.0, 22°C; 5 uM hemin
[7] = test system: CatG4 (DNA, G4) TGGGTAGGGCGGGTTGGGAAA; assay: as above; conditions: 20 mM KCl; 40 mM HEPES pH 8.0, 22°C; 5 uM hemin
[8] = test system: CatG4-ext (DNA, G4) ACATAGCTGACTGGCTTGATTTTGGGTAGGGCGGGTTGGGAAATATCGAATTCTCAGCCTACACTGCAGTACTAGTACATATCA; assay: as above; conditions: 20 mM KCl, 26 mM MgCl2, 2.5 mM spermidine; QD buffer pH 8.0, 22°C; 10 nM DNA, 5 uM hemin, 100 uM ssDNA or dsDNA competitor
[9] = test system: rBCL2 (RNA, G4) AGGGGGCCGUGGGGUGGGAGCUGGGG; assay: as above; conditions: 20 mM KCl; 40 mM HEPES pH 8.0, 22°C; 5 uM hemin
[10] = test system: KIT2 (DNA, G4) CGGGCGGGCGCGAGGGAGGGG; assay: as above; conditions: 20 mM KCl; 40 mM HEPES pH 8.0, 22°C; 5 uM hemin
[11] = test system: CatG4-T7 / ssDNA duplex-GQ chimera (DNA, G4) TGGGTAGGGCGGGTTGGGAAATATCCTATAGTGAGTCGTATTAAAG/CTTTAATACGACTCACTATAGG; assay: as above; conditions: 20 mM KCl, 26 mM MgCl2, 2.5 mM spermidine; QD buffer pH 8.0; 1 uM DNA, 5 uM hemin; CatG4-T7 strand 52%, ssDNA strand 3% biotinylated
[12] = test system: CatG4-ext2 / Comp-1 / ssDNA / Comp-3 GQ-duplex chimera (DNA, G4) TGGGTAGGGCGGGTTGGGAAATATTTTAGCTCACGAGACGCTCCCATAGTGACCTATAGTGAGTCGTATTAAAGTCCGGAGGACTGTCCTCCGGC/TCACTATGGGAGCGTCTCGTGAGCTAAA/CTTTAATACGACTCACTATAGG/GCCGGAGGACAGTCCTCCGGA; assay: as above; conditions: 20 mM KCl, 26 mM MgCl2, 2.5 mM spermidine; QD buffer pH 8.0; 1 uM DNA, 5 uM hemin; ssDNA strand not biotinylated
[13] = test system: hTELO (DNA, G4) GGTTAGGGTTAGGGTTAGGGTTAGGGTTAG; assay: as above; conditions: 20 mM KCl; 40 mM HEPES pH 8.0, 22°C; 5 uM hemin
[14] = 20 uM ligand lowers biotinylation 67% to 22-23%

binding [1, 14]: yes
SMILES: CCc1c(C)c2cc3nc(cc4nc(cc5c(CC)c(C)c(cc1[nH]2)n5C)C(C)=C4CCC(=O)O)C(CCC(=O)O)=C3C

binding ([1]; 20 uM ligand lowers biotinylation 67% to 1%): yes
SMILES: NCCOc1cc(C(=O)Nc2cc(OCCN)c3ccccc3n2)nc(C(=O)Nc2cc(OCCN)c3ccccc3n2)c1

binding [2]: yes
binding [3]: weak
binding [4]: yes
binding [5]: weak
binding [6]: yes
binding [7]: yes
binding [8]: yes
binding [9]: yes
binding [10]: yes
binding [11]: yes
binding [12]: yes
binding [13]: yes
SMILES: C=CC1=C(C)C2=Cc3c(C=C)c(C)c4[n]3[Fe]([Cl])[n]3c(c(C)c(CCC(=O)O)c3=CC3=NC(=C4)C(C)=C3CCC(=O)O)=CC1=N2

binding [1, 14]: yes
SMILES: CN(C)c1ccc(Nc2c3ccc(NC(=O)CCN4CCCC4)cc3nc3cc(NC(=O)CCN4CCCC4)ccc23)cc1
